# Source: paper PMC12770603 (Scientific Reports, 2025)
# System: EstN3
# Assay: p-nitrophenol release at […] nm, Michaelis-Menten non-linear fit
# Type: biochemical, uncultured bacterium
# Details: pH 7.0, 37 °C, 15 min
structure (smiles),measurement,value
CCCCC(=O)Oc1ccc([N+](=O)[O-])cc1 [pNP-valerate],Km,1.52 mM
